The text below walks through data of patent publication US20220195056A1, “METHOD OF TREATING KELOIDS” (Icahn School of Medicine at Mount Sinai, priority 2019, published 2022).

“Also recorded” adds a separate entry of the source. Bounds are passed on as bounds.

Assay type in all cases: in vivo, human
For experiment [1], the system named is keloid. The experiment can be described thus: Prior treatment of keloid nodules with intralesional triamcinolone injections. The following applies: before dupilumab.
Experiment [2] has as its system keloid. The experiment can be described thus: Clinical keloid response to dupilumab in a subject with severe atopic dermatitis and two keloid nodules. The text has this:
(A) On the right popliteal fossa, a large depigmented keloid (denoted by the dotted arrow) measured at 3.5 cm horizontal, 2.8 cm vertical, and 2.1 cm, and a smaller adjacent keloid (denoted by the bold arrow) measured at 1.2 cm horizontal, 0.7 cm vertical, and 1.1 cm, August 2018. […] Images to scale and taken with different perspectives. Th2-specific inflammatory biomarkers (C-E) measured by quantitative real-time PCR in healthy skin and keloid non-lesional (NL) and lesional (LS) skin. Black stars: significance of comparison between keloid skin and controls. Black lines within boxes represent median values; bold red lines represent mean values. Each black dot represents an individual patient; ^+P<0.1, *P<0.05.
A subject afflicted with severe atopic dermatitis (AD) (body surface area/BSA 70%; SCORing of AD/SCORAD, 50; Eczema Area and Severity Index/EASI, 33) post-inflammatory hypopigmentation, and two keloid nodules was treated with dupilumab. […] Both nodules were present for more than 2 years. […] The subject received 300 mg subcutaneous dupilumab injections for severe AD, administered every 2 weeks for a month.

Experiment [3] relates to keloids. The experiment can be described thus: Clinical keloid response to dupilumab injections in African American keloid patients. The procedure:
(A) The image depicts keloids before treatment with dupilumab in a patient. (B) The image depicts keloids in a patient after 1.5 months of treatment with dupilumab (subcutaneous injections of 300 mg every week, after 600 mg induction at baseline). (C) The image depicts keloids in the same patient at the end of the third month of treatment with dupilumab.
A subject with keloids, but without other dermatological symptoms, was treated with dupilumab. The subject received 300 mg subcutaneous dupilumab injections, administered weekly.
The inventors observed a significant keloid reduction in yet a third patient treated with dupilumab. Another patient with keloids, but no other dermatological symptoms, received weekly subcutaneous injections of dupilumab (300 mg) and observed a positive response.
In addition, only the weekly injections were sufficient to maintain the size reduction and to treat the pain and irritation associated with the keloids in the afflicted patients.

The mark [4] stands for this setting: after 3 months, weekly subcutaneous 300 mg.
Where [5] appears, read: after 3 months, weekly subcutaneous 300 mg after 600 mg induction.

Turning to `C[C@]12C=CC(=O)C=C1CC[C@H]1[C@@H]3C[C@@H](O)[C@](O)(C(=O)CO)[C@@]3(C)C[C@H](O)[C@@]12F` [triamcinolone], the “keloid response to prior intralesional treatment” value in experiment [1] is on record as “minimal improvement”.
As to dupilumab, the “outcome of the smaller adjacent keloid” value in experiment [2] (after dupilumab treatment (seven months), before treatment 1.2 cm horizontal, 0.7 cm vertical, 1.1 cm) was “complete disappearance”. In experiment [2] (post-treatment, before treatment 2.1 cm), the “larger keloid nodule size, third (unnamed) dimension, after dupilumab” value was found to be 0.9 cm. In addition, the “larger keloid nodule size, vertical, after dupilumab” value in experiment [2] (post-treatment, before treatment 2.8 cm) stood at 1 cm. Also, the “larger keloid nodule size, horizontal, after dupilumab” value in experiment [2] (post-treatment, before treatment 3.5 cm) is 1.6 cm. Further, the “reduction in size of the large keloid” value in experiment [2] (seven months after dupilumab treatment, 300 mg subcutaneous every 2 weeks for a month, right popliteal fossa) is more than 50%. In experiment [3] (3 months, 300 mg subcutaneous every week after 600 mg induction at baseline), the “change in keloid size (FIG. 3 patient)” value was “noticeable reduction in the keloid size; also recorded: reduction in size and depth”. In experiment [3] (setting [4]), the “keloid shrinkage in diameter (FIG. 5 patient)” value is 0.8 cm and the “keloid shrinkage in height (FIG. 5 patient)” value came out at 0.5 cm. In experiment [3] (setting [5]), the “keloid shrinkage in diameter (FIG. 4 patient)” value came to 2 cm and the “keloid shrinkage in height (FIG. 4 patient)” value was 0.5 cm. The “efficacy of every other week injections on keloids” value in experiment [3] (injections every other week) is reported as “insufficient to treat keloids”. Moreover, the “patients with reduction in keloid size and shape” value in experiment [3] (weekly dupilumab injections, African American patients) was “three of the three”. Further, in experiment [3] (weekly subcutaneous 300 mg), the “change in keloid size (third patient, FIG. 5)” value is listed as “noticeable reduction in the keloid size”.
